Measurements taken from US10988478B1, “Pyrazolo[1,5a]pyrimidine derivatives as IRAK4 modulators” (Genentech, Inc., priority 2015, dated 2021).

Each molecule was assayed against human IRAK4 (Homo sapiens (Human), UniProt Q9NWZ3) (assay: IRAK4 kinase inhibition, Transcreener fluorescence polarization ADP assay). Conditions: recombinant full-length His6-IRAK4; 125 uM ATP; 90 min; Ki computed using ATP Km 642 uM.
Assay type: biochemical
Method: Compounds were assayed for inhibition of human IRAK4 and IRAK1 catalytic activity using recombinant enzyme produced from insect cells. Full-length IRAK4 protein, carrying an N-terminal His6-Tag, was obtained from Life Technologies (Carlsbad, Calif., USA). The IRAK1 construct was produced internally and was comprised of IRAK1 residues Arg194 to Ser712, preceded by an NH2-terminal His6 tag and the coding sequence for glutathione-S-transferase.

Sequence of human IRAK4 (Q9NWZ3 whole entry): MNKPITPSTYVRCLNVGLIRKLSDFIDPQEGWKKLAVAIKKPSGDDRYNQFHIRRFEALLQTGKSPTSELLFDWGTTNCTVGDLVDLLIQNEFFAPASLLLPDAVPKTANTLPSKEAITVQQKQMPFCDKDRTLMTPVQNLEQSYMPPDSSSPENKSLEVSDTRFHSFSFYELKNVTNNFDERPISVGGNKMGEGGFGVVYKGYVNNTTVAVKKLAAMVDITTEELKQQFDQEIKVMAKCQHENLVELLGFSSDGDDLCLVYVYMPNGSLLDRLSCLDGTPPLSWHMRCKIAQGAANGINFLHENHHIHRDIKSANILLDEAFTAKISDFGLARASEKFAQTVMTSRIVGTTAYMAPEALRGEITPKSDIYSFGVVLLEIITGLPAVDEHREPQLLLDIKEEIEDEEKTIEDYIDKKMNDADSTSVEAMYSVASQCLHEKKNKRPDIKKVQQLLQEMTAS

Compound	Ki [µM]
O=C(Nc1cc2c(cc1N1CCOCC1)OC1(CCN(CC(F)F)CC1)C2)c1cnn2cccnc12 [Example 370, N-[1′-(2,2-difluoroethyl)-6-morpholino-spiro[3H-benzofuran-2,4′-piperidine]-5-yl]pyrazolo[1,5-a]pyrimidine-3-carboxamide]	0.0058
CN1CCC2(CC1)Cc1cc(NC(=O)c3cnn4cccnc34)c(N3CCN(CC(N)=O)CC3)cc1O2 [Example 373, N-(6-(4-(2-Amino-2-oxoethyl)piperazin-1-yl)-1′-methyl-3H-spiro[benzofuran-2,4′-piperidin]-5-yl)pyrazolo[1,5-a]pyrimidine-3-carboxamide]	0.0017
O=C(CN1CCN(c2cc3c(cc2NC(=O)c2cnn4cccnc24)CC2(CCNCC2)O3)CC1)NC1CC1 [Example 375, N-(6-(4-(2-(Cyclopropylamino)-2-oxoethyl)piperazin-1-yl)-3H-spiro[benzofuran-2,4′-piperidin]-5-yl)pyrazolo[1,5-a]pyrimidine-3-carboxamide]	0.047
CN1CCC2(CC1)Cc1cc(NC(=O)c3cnn4cccnc34)c(N3CCN(CC(=O)NC4CC4)CC3)cc1O2 [Example 376, N-(6-(4-(2-(Cyclopropylamino)-2-oxoethyl)piperazin-1-yl)-1′-methyl-3H-spiro[benzofuran-2,4′-piperidin]-5-yl)pyrazolo[1,5-a]pyrimidine-3-carboxamide]	0.046
CNc1cnc2c(C(=O)Nc3cc4c(cc3N3CCN(CC(F)F)CC3)O[C@](C)(CO)C4)cnn2c1 [Example 381, (S)-N-(6-(4-(2,2-difluoroethyl)piperazin-1-yl)-2-(hydroxymethyl)-2-methyl-2,3-dihydrobenzofuran-5-yl)-6-(methylamino)pyrazolo[1,5-a]pyrimidine-3-carboxamide]	0.003
CNc1cnc2c(C(=O)Nc3cc4c(cc3N3CCN(CC(F)F)CC3)OC3(CCOCC3)C4)cnn2c1 [Example 383, N-(6-(4-(2,2-difluoroethyl)piperazin-1-yl)-2′,3′,5′,6′-tetrahydro-3H-spiro[benzofuran-2,4′-pyran]-5-yl)-6-(methylamino)pyrazolo[1,5-a]pyrimidine-3-carboxamide]	0.0076
CC1(C)Cc2cc(NC(=O)c3cnn4cccnc34)c(C3CC3)cc2O1 [Example 384, N-(6-Cyclopropyl-2,2-dimethyl-3H-benzofuran-5-yl)pyrazolo[1,5-a]pyrimidine-3-carboxamide]	0.037
CC1(CC#N)Cc2cc(NC(=O)c3cnn4cccnc34)c(N3CCOCC3)cc2O1 (stereo not shown) [Example 386, N-[2-(Cyanomethyl)-2-methyl-6-morpholino-3H-benzofuran-5-yl]pyrazolo[1,5-a]pyrimidine-3-carboxamide]	0.016
CC1(C)Cc2cc(NC(=O)c3cnn4cccnc34)c(N3CCC(F)(CN)CC3)cc2O1 [Example 389, N-[6-[4-(Aminomethyl)-4-fluoro-1-piperidyl]-2,2-dimethyl-3H-benzofuran-5-yl]pyrazolo[1,5-a]pyrimidine-3-carboxamide]	0.0013
CN1CC[C@]2(Cc3cc(NC(=O)c4cnn5cccnc45)c(N4CCOCC4)cc3O2)C1 [Example 390, (R)—N-(1′-methyl-6-morpholino-3H-spiro[benzofuran-2,3′-pyrrolidin]-5-yl)pyrazolo[1,5-a]pyrimidine-3-carboxamide]	0.016
CC(C)(O)C(F)C1(C)Cc2cc(NC(=O)c3cnn4cccnc34)c(N3CCOCC3)cc2O1 (stereo not shown) [Example 392, N-[2-(1-fluoro-2-hydroxy-2-methyl-propyl)-2-methyl-6-morpholino-3H-benzofuran-5-yl]pyrazolo[1,5-a]pyrimidine-3-carboxamide]	0.018
CC1(C)Cc2cc(NC(=O)c3cnn4cccnc34)c([C@@H]3C[C@H]3C(N)=O)cc2O1 [Example 396, N-(6-((1R,2R)-2-Carbamoylcyclopropyl)-2,2-dimethyl-2,3-dihydrobenzofuran-5-yl)pyrazolo[1,5-a]pyrimidine-3-carboxamide]	0.11
CNc1cnc2c(C(=O)Nc3cc4c(cc3N3CCOCC3)C(=O)N(C(C)C)C4)cnn2c1 [Example 398, N-(2-Isopropyl-6-morpholino-1-oxoisoindolin-5-yl)-6-(methylamino)pyrazolo[1,5-a]-pyrimidine-3-carboxamide]	0.007
O=C(Nc1cc2c(cc1N1CCOCC1)C(=O)N([C@@H]1CCOC[C@H]1F)C2)c1cnn2cccnc12 [Example 400, N-[2-[(3S,4R)-3-fluorotetrahydropyran-4-yl]-6-morpholino-1-oxo-isoindolin-5-yl]pyrazolo[1,5-a]pyrimidine-3-carboxamide]	0.001

Continued by falling Ki, values first:

Ki [µM]	Compound
0.34	CNC(=O)C1CC1c1cc2c(cc1NC(=O)c1cnn3cccnc13)CC(C)(C)O2 (stereo not shown) [Example 395, N-(2,2-dimethyl-6-(2-(methylcarbamoyl)cyclopropyl)-2,3-dihydrobenzofuran-5-yl)pyrazolo[1,5-a]pyrimidine-3-carboxamide]
0.088	CC1(C)Cc2cc(NC(=O)c3cnn4cccnc34)c([C@@H]3C[C@H]3CO)cc2O1 [Example 397, N-(6-((1R,2R)-2-(Hydroxymethyl)cyclopropyl)-2,2-dimethyl-2,3-dihydrobenzofuran-5-yl)pyrazolo[1,5-a]pyrimidine-3-carboxamide]
0.075	O=C(Nc1cc2c(cc1N1CCOCC1)OC(CO)(CO)C2)c1cnn2cccnc12 [Example 394, N-(2,2-bis(hydroxymethyl)-6-morpholino-2,3-dihydrobenzofuran-5-yl)pyrazolo[1,5-a]pyrimidine-3-carboxamide]
0.031	CN1CC[C@@]2(Cc3cc(NC(=O)c4cnn5cccnc45)c(N4CCOCC4)cc3O2)C1 [Example 391, (S)—N-(1′-methyl-6-morpholino-3H-spiro[benzofuran-2,3′-pyrrolidin]-5-yl)pyrazolo[1,5-a]pyrimidine-3-carboxamide]
0.024	O=C(Nc1cc2c(cc1N1CCOCC1)OC1(CCNC1)C2)c1cnn2cccnc12 (stereo not shown) [Example 393, N-(6-Morpholinospiro[3H-benzofuran-2,3′-pyrrolidine]-5-yl)pyrazolo[1,5-a]pyrimidine-3-carboxamide]
0.019	CN1Cc2cc(NC(=O)c3cnn4cccnc34)c(N3CCOCC3)cc2S1(=O)=O [Example 385, N-(2-methyl-6-morpholino-1,1-dioxo-3H-1,2-benzothiazol-5-yl)pyrazolo[1,5-a]pyrimidine-3-carboxamide]
0.013	CC(C)N1CCC2(CC1)Cc1cc(NC(=O)c3cnn4cccnc34)c(N3CCOCC3)cc1O2 [Example 372, N-(1′-isopropyl-6-morpholino-spiro[3H-benzofuran-2,4′-piperidine]-5-yl)pyrazolo[1,5-a]pyrimidine-3-carboxamide]
0.012	C[C@]1(CCO)Cc2cc(NC(=O)c3cnn4cccnc34)c(N3CCOCC3)cc2O1 [Example 388, (R)—N-(2-(2-hydroxyethyl)-2-methyl-6-morpholino-2,3-dihydrobenzofuran-5-yl)pyrazolo[1,5-a]pyrimidine-3-carboxamide]
0.011	O=C(Nc1cc2c(cc1OCC(F)F)OC1(CCNCC1)C2)c1cnn2cccnc12 [Example 377, N-(6-(2,2-Difluoroethoxy)-3H-spiro[benzofuran-2,4′-piperidin]-5-yl)pyrazolo[1,5-a]pyrimidine-3-carboxamide]
0.0081	CNc1cnc2c(C(=O)Nc3cc4c(cc3N3CCOCC3)OC3(CCN(C)CC3)C4)cnn2c1 [Example 380, N-(1′-methyl-6-morpholino-3H-spiro[benzofuran-2,4′-piperidin]-5-yl)-6-(methylamino)pyrazolo[1,5-a]pyrimidine-3-carboxamide]
0.0073	CN1CCC2(CC1)Cc1cc(NC(=O)c3cnn4cccnc34)c(OCC(F)F)cc1O2 [Example 378, N-(6-(2,2-difluoroethoxy)-1′-methyl-3H-spiro[benzofuran-2,4′-piperidin]-5-yl)pyrazolo[1,5-a]pyrimidine-3-carboxamide]
0.0068	O=C(Nc1cc2c(cc1N1CCOCC1)OC1(CCN(CCO)CC1)C2)c1cnn2cccnc12 [Example 369, N-[1′-(2-Hydroxyethyl)-6-morpholino-spiro[3H-benzofuran-2,4′-piperidine]-5-yl]pyrazolo[1,5-a]pyrimidine-3-carboxamide]
0.0051	CNc1cnc2c(C(=O)Nc3cc4c(cc3N3CCN(CC(F)F)CC3)OC(C)(C)C4)cnn2c1 [Example 379, N-[6-[4-(2,2-difluoroethyl)piperazin-1-yl]-2,2-dimethyl-3H-benzofuran-5-yl]-6-(methylamino)pyrazolo[1,5-a]pyrimidine-3-carboxamide]
0.005	O=C(Nc1cc2c(cc1N1CCOCC1)C(=O)N([C@H]1CCOC[C@@H]1F)C2)c1cnn2cccnc12 [Example 399, N-[2-[(3R,4S)-3-Fluorotetrahydropyran-4-yl]-6-morpholino-1-oxo-isoindolin-5-yl]pyrazolo[1,5-a]pyrimidine-3-carboxamide]
0.004	CNc1cnc2c(C(=O)Nc3cc4c(cc3N3CCN(CC(F)F)CC3)O[C@@](C)(CO)C4)cnn2c1 [Example 382, (R)-N-(6-(4-(2,2-difluoroethyl)piperazin-1-yl)-2-(hydroxymethyl)-2-methyl-2,3-dihydrobenzofuran-5-yl)-6-(methylamino)pyrazolo[1,5-a]pyrimidine-3-carboxamide]
0.002	CC(=O)N1CCC2(CC1)Cc1cc(NC(=O)c3cnn4cccnc34)c(N3CCN(CC(N)=O)CC3)cc1O2 [Example 374, N-(1′-Acetyl-6-(4-(2-amino-2-oxoethyl)piperazin-1-yl)-3H-spiro[benzofuran-2,4′-piperidin]-5-yl)pyrazolo[1,5-a]pyrimidine-3-carboxamide]
0.0014	CN1CCC2(CC1)Cc1cc(NC(=O)c3cnn4cccnc34)c(N3CCC(CO)CC3)cc1O2 [Example 371, N-(6-(4-(Hydroxymethyl)piperidin-1-yl)-1′-methyl-3H-spiro[benzofuran-2,4′-piperidin]-5-yl)pyrazolo[1,5-a]pyrimidine-3-carboxamide]
